These results are taken from patent publication US10478423B2, “Substituted indazole derivatives active as kinase inhibitiors” (NERVIANO MEDICAL SCIENCES S.R.L., priority 2011, dated 2019).

The subject of one test is MV-4-11 cells. The test can be described thus: In vitro cell proliferation assay (CellTiter-Glo), MV-4-11. It counts as cell-based. Conditions: MV4-11, human acute leukemia cells bearing FLT3-ITD mutation, 72 h. Here is the method:
(§1) The human acute leukemia MOLM-13 AND MV-4-11 cells, bearing a FLT3-ITD mutation, were seeded (5000 cells/well) in white 384 well-plates in complete medium (RPMI 1640 plus 10% Fetal bovine serum) and treated with compounds dissolved in 0.1% DMSO, 24 h after seeding. The cells were incubated at 37° C. and 5% CO2 and after 72 h the plates were processed using CellTiter-Glo assay (Promega) following the manufacturer's instruction.
(§2) CellTiter-Glo is a homogenous method based on the quantification of the ATP present, an indicator of metabolitically active cells. ATP was quantified using a system based on luciferase and D-luciferin resultant into light generation. The luminescent signal was proportional to the number of cells present in culture.
(§3) Briefly, 25 microL/well reagent solution were added to each well and, after 5 minutes shaking, microplates were read by Envision (PerkinElmer) luminometer. Inhibitory activity was evaluated comparing treated versus control data using Symyx Assay Explorer (Symyx Technologies Inc.) program. IC50 was calculated using sigmoidal interpolation curve.
A general note: ATP-based viability assays read luminescence as a measure of living cells.

Another test concerns MOLM-13 cells. The test can be described thus: In vitro cell proliferation assay (CellTiter-Glo), MOLM-13. The test is classed as cell-based. The settings on record: human acute leukemia cells bearing FLT3-ITD mutation, 72 h. As to the method: as §1, §2, §3

Each structure is given as a SMILES string. pIC50: −log10 of the molar value.

As to `CN(C)c1ccc(C(=O)Nc2n[nH]c3cc(OCc4ccccc4)ccc23)cc1` [Ref. Compound], the pIC50 is 5.26 in the test with MV-4-11 cells and 5.41 with MOLM-13 cells.

For orientation: pIC50 means −log10 of the IC50, conventionally taken in molar units. Low values mean a high IC50, high ones a low IC50.
